Reference: publication PMC7154662, “Structural Insight into IAPP‐Derived Amyloid Inhibitors and Their Mechanism of Action” (Angewandte Chemie (International Ed. in English), 2020)
Non-standard residues stand in square brackets, D forms with d. Residues, ends and D or L forms follow the SMILES beside them. NMeI = CC[C@H](C)[C@H](NC)C(=O)O; Sar = CNCC(=O)O

Biological target: T1, R3-GI (Homo sapiens, UniProt P10997, N54R/S52R/S53R)
T1 construct: linking the two hot segments IAPP(8–18) and IAPP(22–28) in native or N‐methylated form; made in house; host or cells: chemical solid phase peptide synthesis (no expression host)
T1 sequence (P10997 41-61 S52R/S53R/N54R): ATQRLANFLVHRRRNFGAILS
Assay: Fluorescence titration: self-association of Fluos-R3-GI with R3-GI
Settings: Fluos-R3-GI 5 nM titrated with R3-GI; 10 mM sodium phosphate buffer, pH 7.4 (1% HFIP); room temperature, 2-5 min after solution preparation; excitation 492 nm; means (±SEM) from three binding curves; read-out: app. Kd for R3-GI self-association
Excerpt: Figure 1 R3‐GI self‐assembly. […] On the right, the binding curve is shown. The estimated app. […] Data are means (±SEM) from three binding curves. […] Scale bar: 10 μm.
The sampling of the 12 replicas was combined resulting in the ensemble of conformations were the statistical weight of each conformation is obtained by a simple reweighting scheme based on the final metadynamics bias B. The weight of a conformation X is given by w=exp(+B(X)/kBT), consistently with the quasi static behavior at convergence of well- […]
Coarse-grained modelling of R3-GI oligomers
To investigate the interaction of the peptides with each other, over 100 μs of coarse grain simulations were performed using GROMACS. An initial peptide model was created based on a representative structure from the atomistic ensemble. The Martini 2.2 force field was used to describe the peptide interaction together with the standard Martini water model.
Additionally, an elastic network was applied to conserve structural information. […]
Fluorescence spectroscopic titrations
A JASCO FP-6500 fluorescence spectrophotometer was used and titrations were performed as previously described. Briefly, excitation was at 492 nm and fluorescence emission spectra were recorded between 500 and 600 nm. […]
temperature within 2-5 min following solution preparation. The determined app. […]

Kd: 77.1 nM
Structure (SMILES): CC[C@H](C)[C@@H](C(=O)N[C@@H](CC(C)C)C(=O)N[C@@H](CO)C(N)=O)N(C)C(=O)[C@H](C)NC(=O)CN(C)C(=O)[C@H](Cc1ccccc1)NC(=O)[C@H](CC(N)=O)NC(=O)[C@H](CCCNC(=N)N)NC(=O)[C@H](CCCNC(=N)N)NC(=O)[C@H](CCCNC(=N)N)NC(=O)[C@H](Cc1c[nH]cn1)NC(=O)[C@@H](NC(=O)[C@H](CC(C)C)NC(=O)[C@H](Cc1ccccc1)NC(=O)[C@H](CC(N)=O)NC(=O)[C@H](C)NC(=O)[C@H](CC(C)C)NC(=O)[C@H](CCCNC(=N)N)NC(=O)[C@H](CCC(N)=O)NC(=O)[C@@H](NC(=O)[C@H](C)N)[C@@H](C)O)C(C)C [R3-GI] (H-ATQRLANFLVHRRRNF[Sar]A[NMeI]LS-NH2)
